Experimental data: patent US20250197799A1, “CELLS DERIVED FROM POLYPEDILUM VANDERPLANKI AND ODOR SENSOR EQUIPPED THEREWITH” (University of Maryland, College Park, priority 2022, published 2025)

What was measured:
Orco = target: T1, Orco (Drosophila melanogaster, UniProt Q9VNB5); test: Response of BAM-immobilized Orco stable expression cell line; format: cell-based; conditions: Pv11-GCaMP6f-Orco stable expression cell line immobilized with BAM
T1 construct: remnant residues; expressed in transfected cells; host or cells: Pv11 cells (Polypedilum vanderplanki), knock-in at the Pv.00443 locus downstream of the 121 promoter, single-cell sorting
T1 sequence (Q9VNB5 1-486): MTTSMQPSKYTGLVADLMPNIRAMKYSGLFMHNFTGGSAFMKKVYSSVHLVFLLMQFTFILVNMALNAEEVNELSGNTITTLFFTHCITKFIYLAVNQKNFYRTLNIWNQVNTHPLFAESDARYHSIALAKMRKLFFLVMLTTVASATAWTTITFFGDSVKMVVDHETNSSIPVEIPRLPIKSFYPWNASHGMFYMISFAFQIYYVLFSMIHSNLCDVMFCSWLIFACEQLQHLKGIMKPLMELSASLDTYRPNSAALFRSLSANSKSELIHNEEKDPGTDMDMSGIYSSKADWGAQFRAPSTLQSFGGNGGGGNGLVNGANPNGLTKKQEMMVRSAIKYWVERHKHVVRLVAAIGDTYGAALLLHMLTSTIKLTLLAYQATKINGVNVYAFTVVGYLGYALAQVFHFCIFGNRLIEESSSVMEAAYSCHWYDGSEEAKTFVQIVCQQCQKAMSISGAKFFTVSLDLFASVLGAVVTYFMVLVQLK
Description: 8.1 Pv11 cell immobilization. A cell membrane modifier (BAM: Biocompatible Anchor for cell Membrane) was used to fix the stable expression cell line obtained above. BAM consists of a hydrophilic PEG chain, an NHS group, and a hydrophobic oleyl group; by bringing BAM into contact with a collagen-coated dish, the NHS group binds to collagen, and the oleyl group interacts with the cell membrane through hydrophobic interactions, allowing cells to adhere. BAM (SUNBRIGHT OE-040CS, Yuka Sangyo Co., Ltd.) was dissolved in DMSO (Fujifilm Wako Pure Chemical Industries) to a concentration of 10 mM. The 10 mM BAM solution was adjusted to DPBS(-) (Thermo Fisher) to a final concentration of 100 μM, 100 μl was dropped onto a collagen 1-coated 48-well microplate (IWAKI) and incubated at 37° C. for 1 hour. The BAM solution was removed, washed once with DPBS(-) (Thermo Fisher) and five times with MilliQ, and allowed to stand still to evaporate water droplets. The Pv11 cell suspension was centrifuged at 700 g for 3 minutes, the supernatant was removed, the cell pellet was suspended in DPBS(-) (Thermo Fisher) and dropped onto a BAM-coated dish. […]
8.2 Functional confirmation of exogenous membrane proteins in fixed cells. […] Each substance was reacted with each cell in the same manner as in 3.2 above, and the fluorescence intensity was measured. […]

Orco-Or47a = target: T2, Orco-Or47a (Drosophila melanogaster, UniProt P81921+Q9VNB5); test: Response after rehydration with cycloheximide treatment, Orco-Or47a stable expression cell line; format: cell-based; parameters: remnant residues; expressed in transfected cells; host or cells: Pv11 cells (Polypedilum vanderplanki), CRIS-PITCh knock-in at the Pv.00443 locus downstream of the 121 promoter, Zeocin selection and single-cell sorting
T2 sequence (Q9VNB5 1-486): T1 sequence (Q9VNB5 1-486)
T2 sequence (P81921 1-385): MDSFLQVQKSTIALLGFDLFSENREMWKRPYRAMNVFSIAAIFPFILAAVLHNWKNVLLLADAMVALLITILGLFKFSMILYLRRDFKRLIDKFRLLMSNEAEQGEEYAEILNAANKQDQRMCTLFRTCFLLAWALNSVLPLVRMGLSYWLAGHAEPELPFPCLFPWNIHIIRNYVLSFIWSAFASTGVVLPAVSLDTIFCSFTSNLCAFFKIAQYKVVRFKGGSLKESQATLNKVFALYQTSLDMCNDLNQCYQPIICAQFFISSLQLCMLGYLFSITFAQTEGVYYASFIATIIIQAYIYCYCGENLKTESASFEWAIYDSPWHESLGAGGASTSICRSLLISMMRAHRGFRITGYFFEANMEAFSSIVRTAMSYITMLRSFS
Method: 7. Confirmation that exogenous membrane protein responses in Orco-Or47a stable expression cell lines immediately after rehydration are not due to de novo protein synthesis. To confirm that the membrane protein response of the Orco-Or47a stable expression cell line immediately after rehydration was not due to de novo protein synthesis, cells were treated with cycloheximide (CHX, a protein synthesis inhibitor).
A previous study reported that 0.35 mM of cycloheximide is able to inhibit protein production in Pv11 cells. Therefore, also in this experiment, cycloheximide was dissolved in IPL-41 medium so that the cycloheximide concentration was 0.35 mM. An IPL-41 medium with 0.01 mM, 0.07 mM and 0.7 mM cycloheximide was also prepared. The rehydration of dried cells was performed using 1 ml of I PL-41 medium containing cycloheximide. One hour after rehydration and 24 hours after rehydration, the same operation as in 3.6 above was performed, and the fluorescence intensity was measured and analyzed. The ΔF/F0 was as described above. FIG. 7A and FIG. 7B are graphs showing changes in fluorescence intensity of the Orco-Or47a stable expression cell line response to VUAA1 and pentyl acetate, respectively, one hour after drying and rehydration. FIGS. 7C and 7D are graphs showing changes in fluorescence intensity, respectively, in response to VUAA1 and pentyl acetate of Orco-Or47a stable expression cell lines 24 hours after drying and rehydration.

[1] = 1 hour after drying-rehydration
[2] = 24 hours after rehydration, without CHX

CCc1ccc(NC(=O)CSc2nnc(-c3cccnc3)n2CC)cc1 [VUAA1, N-(4-ethylphenyl)-2-{[4-ethyl-5-(pyridin-3-yl)-4H-1,2,4-triazol-3-yl]sulfanyl}acetamide]
response (fluorescence intensity) of immobilized cells (Orco): did respond | response as change in fluorescence intensity (ΔF/F0) (Orco-Or47a; [1]): specific responses | response as change in fluorescence intensity (ΔF/F0) (Orco-Or47a; [2]): strongly enhanced

CCCCCOC(C)=O [pentyl acetate]
response (fluorescence intensity) of immobilized cells (Orco): did not respond | response as change in fluorescence intensity (ΔF/F0) (Orco-Or47a; [1]): specific responses | response as change in fluorescence intensity (ΔF/F0) (Orco-Or47a; [2]): strongly enhanced
